According to patent US8569315B2, “Synergistic antimicrobial composition” (priority 2009, dated 2013):

Legend:
Format in all cases: cell-based
[1] = system: Calothrix parientina; test: Algal efficacy testing, modified ASTM 5589, paint film; details: for Total conc: total biocide in paint chosen as minimum inhibitory concentration, dry film; for Total conc / % inhibition: 3 weeks
Description: (§1) Sample preparation: Samples of white acrylic latex paint free of biocides were prepared in 50 ml aliquots. Each biocide was post added to give the necessary active ingredient concentration in the paint. The total biocides concentrations tested were 750, 1500, 2500 and 5000 ppm. After biocides addition, each sample was hand mixed for a minimum of 30 sec, followed by a 3 min run on the paint shaker (RED DEVIL). Each of the paint samples as well as a control sample (containing no biocide) were used to prepare films on black plastic-vinyl chloride/acetate copolymer panels (LENETA, Mahwah, N.J.) using a 3 mil bird bar applicator. The panels were thoroughly dried for 5 days avoiding direct exposure to sunlight. Square discs (15 mm^2) were cut out from each panel and were used as the substrate for fungal and algal efficacy tests. This sample size allowed for an agar border when the sample disc was placed into the well of the test plate.
(§2) The appropriate media (BOLD'S 3N for Chlorophytes, BG-11 for Cyanobacteria, and PDA for fungi) were used to support microbial growth. The test plates were maintained at room temp (25° C.-26° C.), in a cycled light-dark environment, for 3 weeks for algae. Plates for fungal challenge tests were maintained at 30 C for three weeks. At the end of incubation period the samples were scored for percent area covered by visible microbial growth.
(§3) ASTM 5589 is a standard accelerated test method for determining resistance of various coatings (including paints) to algal defacement. To accommodate for high-throughput screening, this method was scaled down from petri plates to 12-well plates. A single coupon was placed with a pair of sterile forceps at the center of the agar plug (on top) with the painted surface facing upwards. Each well was inoculated with 150 μl of organism (1×10^6 cfu/ml) making sure that the whole surface (paint film as well as the agar surrounding it) was evenly covered. The plates were incubated at room temp (25° C.-26° C.) with cyclic exposure to light (OTT-Lite model # OTL4012P, 40 Watt, 26 KLumen) and dark phases, for a period of three weeks. The total area covered was evaluated at the end of each week after the second week according to percent area covered in 5% increments. While rating the plates, notations were made for zones of inhibition.
(§4) The SI is calculated based on F. C. Kull et.

[2] = system: Chlorella sp. UTEX + Chlorella kessleri; test: as above; details: for Total conc: total biocide in paint chosen as minimum inhibitory concentration, dry film; for Total conc / % inhibition: 3 weeks
Description: as §1, §2, §3, §4

[3] = system: Gleocapsa sp.; test: as above; details: for Total conc: total biocide in paint chosen as minimum inhibitory concentration, dry film; for Total conc / % inhibition: 3 weeks
Description: as §1, §2, §3, §4

[4] = system: Nostoc commune; test: as above; details: for Total conc: total biocide in paint chosen as minimum inhibitory concentration, dry film; for Total conc / % inhibition: 3 weeks
Description: as §1, §2, §3, §4

[5] = system: Trentepohlia aurea + Trentepohlia odorata; test: as above; details: for Total conc: total biocide in paint chosen as minimum inhibitory concentration, dry film; for Total conc / % inhibition: 3 weeks; for % inhibition: total conc 1500 ppm in paint
Description: as §1, §2, §3, §4

[6] = system: Oscillatoria sp.; test: as above; details: for Total conc: total biocide in paint chosen as minimum inhibitory concentration, dry film; for Total conc / % inhibition: 3 weeks
Description: as §1, §2, §3, §4

[7] = system: Aureobasidium pullulans; test: Fungal efficacy testing, modified ASTM 5590, paint film; details: for Total conc: total biocide in paint chosen as minimum inhibitory concentration, dry film; for Total conc / % inhibition: 3 weeks
Description: as §1, §2
(§5) ASTM 5590 is a standard accelerated test method for determining resistance of various coatings (including paints) to fungal defacement. To accommodate for high-throughput screening, this method was scaled down from petri plates to 12-well plates. To set up the test, an agar plug was placed at the bottom of each well of the sterile 12-well plate. A single coupon was placed with a pair of sterile forceps at the center of the agar plug (on top) with the painted surface facing upwards. Each well was inoculated with 150 μl of organism (1×10^6 cfu/ml) making sure that the whole surface (paint film as well as the agar surrounding it) was evenly covered. The plates were incubated at 30° C. in presence of moisture, for a period of three weeks. The total percent area covered was evaluated and recorded at the end of each week after the 2nd week and recorded in increments of 5%.
as §4

[8] = system: Alternaria alternata; test: as above; details: for Total conc: total biocide in paint chosen as minimum inhibitory concentration, dry film; for Total conc / % inhibition: 3 weeks
Description: as §1, §2, §5, §4

[9] = system: Penicillium funiculosum; test: as above; details: for Total conc: total biocide in paint chosen as minimum inhibitory concentration, dry film; for Total conc / % inhibition: 3 weeks
Description: as §1, §2, §5, §4

[10] = system: Aspergillus niger; test: as above; details: for Total conc: total biocide in paint chosen as minimum inhibitory concentration, dry film; for Total conc / % inhibition: 3 weeks; for % inhibition: total conc 1500 ppm in paint
Description: as §1, §2, §5, §4

[11] = system: Stachybotris chartarum; test: as above; details: for Total conc: total biocide in paint chosen as minimum inhibitory concentration, dry film
Description: as §1, §2, §5, §4

[12] = system: Trichoderma viride; test: as above; details: for Total conc: total biocide in paint chosen as minimum inhibitory concentration, dry film; for Total conc / % inhibition: 3 weeks
Description: as §1, §2, §5, §4

[13] = system: Cladosporium herbarum; test: as above; details: for Total conc: total biocide in paint chosen as minimum inhibitory concentration, dry film; for Total conc / % inhibition: 3 weeks
Description: as §1, §2, §5, §4

[14] = total conc 750 ppm in paint, Table 3
[15] = total conc 1500 ppm in paint, Table 1
[16] = total conc 2500 ppm in paint, Table 3
[17] = total conc 1500 ppm in paint, Table 3
[18] = total conc 750 ppm in paint, Table 4
[19] = total conc 1500 ppm in paint, Table 2
[20] = total conc 2500 ppm in paint, Table 4
[21] = total conc 1500 ppm in paint, Table 4

CCCCNC(=O)OCC#CI [IPBC, 3-iodo-2-propynyl-butylcarbamate]
Total conc ([1]; Table 1): 1500 ppm | Total conc ([1]; Table 3): 750 ppm | % inhibition [1, 14]: 80% | % inhibition [1, 15]: 80% | Total conc ([2]; Table 1): 2500 ppm | Total conc ([2]; Table 3): 2500 ppm | % inhibition ([2]; total conc 2500 ppm in paint, Table 1): 80% | % inhibition [2, 16]: 80% | Total conc ([3]; Table 1): 750 ppm | Total conc ([3]; Table 3): 2500 ppm | % inhibition ([3]; total conc 750 ppm in paint, Table 1): 80% | % inhibition [3, 16]: 50% | Total conc ([4]; Table 1): 1500 ppm | Total conc ([4]; Table 3): 1500 ppm | % inhibition [4, 15]: 80% | % inhibition [4, 17]: 80% | Total conc ([5]; Table 1): 1500 ppm | Total conc ([5]; Table 3): 1500 ppm | % inhibition ([5]; Table 1): 80% | % inhibition ([5]; Table 3): 80% | Total conc ([6]; Table 1): 1500 ppm | Total conc ([6]; Table 3): 2500 ppm | % inhibition [6, 15]: 80% | % inhibition [6, 16]: 80% | Total conc ([7]; Table 2): 1500 ppm | Total conc ([7]; Table 4): 750 ppm | % inhibition [7, 18]: 60% | % inhibition [7, 19]: 90% | Total conc ([8]; Table 2): 1500 ppm | Total conc ([8]; Table 4): 2500 ppm | % inhibition [8, 19]: 85% | % inhibition [8, 20]: 50% | Total conc ([9]; Table 2): 1500 ppm | Total conc ([9]; Table 4): 1500 ppm | % inhibition [9, 19]: 90% | % inhibition [9, 21]: 70% | Total conc ([10]; Table 2): 1500 ppm | Total conc ([10]; Table 4): 1500 ppm | % inhibition ([10]; Table 2): 60% | % inhibition ([10]; Table 4): 85% | Total conc ([11]; 3 weeks, Table 2): 2500 ppm | % inhibition ([11]; total conc 2500 ppm in paint, 3 weeks, Table 2): 65% | Total conc ([12]; Table 2): 1500 ppm | Total conc ([12]; Table 4): 1500 ppm | % inhibition [12, 19]: 75% | % inhibition [12, 21]: 85% | Total conc ([13]; Table 2): 1500 ppm | Total conc ([13]; Table 4): 1500 ppm | % inhibition [13, 19]: 90% | % inhibition [13, 21]: 80%

Cc1ccn2nc(S(=O)(=O)Nc3c(F)cccc3F)nc2n1 [Flumetsulam]
inhibition at 2500 ppm ([1]; 504 h): 90% | Total conc ([1]; Table 1): 2500 ppm | inhibition at 2500 ppm ([2]; 504 h): 80% | Total conc ([2]; Table 1): 2500 ppm | inhibition at 1500 ppm ([3]; 504 h): 90% | Total conc ([3]; Table 1): 1500 ppm | inhibition at 1500 ppm ([4]; Nostoc commune, 504 h): 85% | Total conc ([4]; Table 1): 1500 ppm | inhibition at 1500 ppm ([5]; 504 h): 85% | Total conc ([5]; Table 1): 1500 ppm | inhibition at 1500 ppm ([6]; 504 h): 80% | Total conc ([6]; Table 1): 1500 ppm | inhibition at 2500 ppm ([7]; Aureobasidium pullulans, 504 h): 90% | Total conc ([7]; Table 2): 2500 ppm | inhibition at 2500 ppm ([8]; Alternaria alternata, 504 h): 90% | Total conc ([8]; Table 2): 2500 ppm | inhibition at 1500 ppm ([9]; Talaromyces funiculosus, 504 h): 80% | Total conc ([9]; Table 2): 1500 ppm | inhibition at 2500 ppm ([10]; Aspergillus niger, 504 h): 40% | Total conc ([10]; Table 2): 2500 ppm | inhibition at 2500 ppm ([11]; 504 h): 70% | Total conc ([11]; 3 weeks, Table 2): 2500 ppm | inhibition at 2500 ppm ([12]; Trichoderma viride, 504 h): 70% | Total conc ([12]; Table 2): 2500 ppm | inhibition at 1500 ppm ([13]; Cladosporium herbarum, 504 h): 85% | Total conc ([13]; Table 2): 1500 ppm

CCOc1nc(F)cc2nc(S(=O)(=O)Nc3c(Cl)cccc3Cl)nn12 [Diclosulam]
Total conc ([1]; Table 3): 750 ppm | % inhibition [1, 14]: 80% | Total conc ([2]; Table 3): 750 ppm | % inhibition [2, 14]: 75% | Total conc ([3]; Table 3): 1500 ppm | % inhibition [3, 17]: 60% | Total conc ([4]; Table 3): 2500 ppm | % inhibition [4, 16]: 75% | Total conc ([5]; Table 3): 1500 ppm | % inhibition ([5]; Table 3): 80% | Total conc ([6]; Table 3): 750 ppm | % inhibition [6, 14]: 80% | Total conc ([7]; Table 4): 1500 ppm | % inhibition [7, 21]: 35% | Total conc ([8]; Table 4): 2500 ppm | % inhibition [8, 20]: 0% | Total conc ([9]; Table 4): 2500 ppm | % inhibition [9, 20]: 45% | Total conc ([10]; Table 4): 1500 ppm | % inhibition ([10]; Table 4): 80% | Total conc ([12]; Table 4): 750 ppm | % inhibition [12, 18]: 80% | Total conc ([13]; Table 4): 2500 ppm | % inhibition [13, 20]: 80%
